Measurements from patent US10787452B2 (Vertex Pharmaceuticals Incorporated, priority 2012, dated 2020).

Tested on: HCT116 colorectal cancer cells
Experiment: Cisplatin sensitization assay (96 h cell viability MTS);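 further: compound concentration needed to lower the Cisplatin-alone IC50 by a set fold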
Type: cell-based
Settings: 96 h MTS, compound plus Cisplatin
Protocol: Compounds can be screened for their ability to sensitize HCT116 colorectal cancer cells to Cisplatin using a 96 h cell viability (MTS) assay. […] Compounds and Cisplatin are then both added simultaneously to the cell media in 2-fold serial dilutions from a top final concentration of 10 μM as a full matrix of concentrations in a final cell volume of 200 μl, and the cells are then incubated at 37° C. in 5% CO2. After 96 h, 40 μl of MTS reagent (Promega G358a) is added to each well and the cells are incubated for 1 h at 37° C. in 5% CO2.

SMILES: Nc1nn2cc(F)cnc2c1C(=O)Nc1cnccc1-c1ccc(C(=O)N2CCN3CCC2CC3)cc1 [I-C-48, N-(4-(4-(1,4-diazabicyclo[3.2.2]nonane-4-carbonyl)phenyl)pyridin-3-yl)-2-amino-6-fluoropyrazolo[1,5-a]pyrimidine-3-carboxamide]
- Cisplatin Sensitization Assay: +++ (Compounds with a Cisplatin sensitization value of <0.02 μM are marked with “+++.”)

SMILES: Nc1nn2cc(F)cnc2c1C(=O)Nc1cnccc1-c1ccc(C(=O)N2CCN(C3COC3)CC2)cc1 [I-C-49, 2-amino-6-fluoro-N-(4-(4-(4-(oxetan-3-yl)piperazine-1-carbonyl)phenyl)pyridin-3-yl)pyrazolo[1,5-a]pyrimidine-3-carboxamide]
- Cisplatin Sensitization Assay: +++ (Compounds with a Cisplatin sensitization value of <0.02 μM are marked with “+++.”)

SMILES: Nc1nn2cc(F)cnc2c1C(=O)Nc1cnccc1-c1ccc(C(=O)N2CCN(C3COC3)CC2)cc1F [I-C-51, 2-amino-6-fluoro-N-(4-(2-fluoro-4-(4-(oxetan-3-yl)piperazine-1-carbonyl)phenyl)pyridin-3-yl)pyrazolo[1,5-a]pyrimidine-3-carboxamide]
- Cisplatin Sensitization Assay: ++ (Compounds with a Cisplatin sensitization value >0.02 μM but <0.2 μM are marked with “++.”)

SMILES: Nc1nn2cc(F)cnc2c1C(=O)Nc1cnccc1-c1ccc(C(=O)N2CCN(C3COC3)CC2)nc1 [I-C-52, 2-amino-6-fluoro-N-(6-(4-(oxetan-3-yl)piperazine-1-carbonyl)-[3,4′-bipyridin]-3′-yl)pyrazolo[1,5-a]pyrimidine-3-carboxamide]
- Cisplatin Sensitization Assay: ++ (Compounds with a Cisplatin sensitization value >0.02 μM but <0.2 μM are marked with “++.”)

SMILES: Nc1nn2cc(F)cnc2c1C(=O)Nc1cnccc1-c1ccc(C(=O)N2CCC(N3CCCC3)CC2)nc1 [I-C-53, 2-amino-6-fluoro-N-(6-(4-(pyrrolidin-1-yl)piperidine-1-carbonyl)-[3,4′-bipyridin]-3′-yl)pyrazolo[1,5-a]pyrimidine-3-carboxamide]
- Cisplatin Sensitization Assay: +++ (Compounds with a Cisplatin sensitization value of <0.02 μM are marked with “+++.”)

SMILES: Nc1nn2cc(F)cnc2c1C(=O)Nc1cnccc1-c1ccc(C(=O)N2CCC(N3CCC3)CC2)nc1 [I-C-54, 2-amino-N-(6-(4-(azetidin-1-yl)piperidine-1-carbonyl)-[3,4′-bipyridin]-3′-yl)-6-fluoropyrazolo[1,5-a]pyrimidine-3-carboxamide]
- Cisplatin Sensitization Assay: +++ (Compounds with a Cisplatin sensitization value of <0.02 μM are marked with “+++.”)

SMILES: Cn1ccnc1-c1ccncc1NC(=O)c1c(N)nn2cc(F)cnc12 [I-C-55, 2-amino-6-fluoro-N-(4-(1-methyl-1H-imidazol-2-yl)pyridin-3-yl)pyrazolo[1,5-a]pyrimidine-3-carboxamide]
- Cisplatin Sensitization Assay: + (Compounds with a Cisplatin sensitization value >0.2 μM but <5 μM are marked with “+.”)

SMILES: Cn1cncc1-c1ccncc1NC(=O)c1c(N)nn2cc(F)cnc12 [I-C-56, 2-amino-6-fluoro-N-(4-(1-methyl-1H-imidazol-5-yl)pyridin-3-yl)pyrazolo[1,5-a]pyrimidine-3-carboxamide]
- Cisplatin Sensitization Assay: +++ (Compounds with a Cisplatin sensitization value of <0.02 μM are marked with “+++.”)

SMILES: Cn1nccc1-c1ccncc1NC(=O)c1c(N)nn2cc(F)cnc12 [I-C-57, 2-amino-6-fluoro-N-(4-(1-methyl-1H-pyrazol-5-yl)pyridin-3-yl)pyrazolo[1,5-a]pyrimidine-3-carboxamide]
- Cisplatin Sensitization Assay: +++ (Compounds with a Cisplatin sensitization value of <0.02 μM are marked with “+++.”)

SMILES: Cn1c(-c2ccncc2NC(=O)c2c(N)nn3cc(F)cnc23)cccc1=O [I-C-58, 2-amino-6-fluoro-N-(1-methyl-6-oxo-1,6-dihydro-[2,4′-bipyridin]-3′-yl)pyrazolo[1,5-a]pyrimidine-3-carboxamide]
- Cisplatin Sensitization Assay: +++ (Compounds with a Cisplatin sensitization value of <0.02 μM are marked with “+++.”)

SMILES: Cn1cc(-c2ccncc2NC(=O)c2c(N)nn3cc(F)cnc23)ccc1=O [I-C-59, 2-amino-6-fluoro-N-(1-methyl-6-oxo-1,6-dihydro-[3,4′-bipyridin]-3′-yl)pyrazolo[1,5-a]pyrimidine-3-carboxamide]
- Cisplatin Sensitization Assay: ++ (Compounds with a Cisplatin sensitization value >0.02 μM but <0.2 μM are marked with “++.”)

SMILES: Nc1nn2cc(F)cnc2c1C(=O)Nc1cnccc1-c1ccccn1 [I-C-60, N-([2,4′-bipyridin]-3′-yl)-2-amino-6-fluoropyrazolo[1,5-a]pyrimidine-3-carboxamide]
- Cisplatin Sensitization Assay: ++ (Compounds with a Cisplatin sensitization value >0.02 μM but <0.2 μM are marked with “++.”)

SMILES: CS(=O)(=O)c1ccc(-c2ccncc2NC(=O)c2c(N)nn3cc(F)cnc23)cc1 [I-C-61, 2-amino-6-fluoro-N-(4-(4-(methylsulfonyl)phenyl)pyridin-3-yl)pyrazolo[1,5-a]pyrimidine-3-carboxamide]
- Cisplatin Sensitization Assay: +++ (Compounds with a Cisplatin sensitization value of <0.02 μM are marked with “+++.”)

SMILES: Cc1nccnc1-c1ccncc1NC(=O)c1c(N)nn2cc(F)cnc12 [I-C-62, 2-amino-6-fluoro-N-(4-(3-methylpyrazin-2-yl)pyridin-3-yl)pyrazolo[1,5-a]pyrimidine-3-carboxamide]
- Cisplatin Sensitization Assay: ++ (Compounds with a Cisplatin sensitization value >0.02 μM but <0.2 μM are marked with “++.”)

SMILES: Cc1nn(C)cc1-c1ccncc1NC(=O)c1c(N)nn2cc(F)cnc12 [I-C-63, 2-amino-N-(4-(1,3-dimethyl-1H-pyrazol-4-yl)pyridin-3-yl)-6-fluoropyrazolo[1,5-a]pyrimidine-3-carboxamide]
- Cisplatin Sensitization Assay: +++ (Compounds with a Cisplatin sensitization value of <0.02 μM are marked with “+++.”)

SMILES: Nc1nn2cc(F)cnc2c1C(=O)Nc1cnccc1-c1ccc(S(=O)(=O)N2CCC2)cc1 [I-C-64, 2-amino-N-(4-(4-(azetidin-1-ylsulfonyl)phenyl)pyridin-3-yl)-6-fluoropyrazolo[1,5-a]pyrimidine-3-carboxamide]
- Cisplatin Sensitization Assay: +++ (Compounds with a Cisplatin sensitization value of <0.02 μM are marked with “+++.”)

SMILES: Cn1ncnc1-c1ccncc1NC(=O)c1c(N)nn2cc(F)cnc12 [I-C-65, 2-amino-6-fluoro-N-(4-(1-methyl-1H-1,2,4-triazol-5-yl)pyridin-3-yl)pyrazolo[1,5-a]pyrimidine-3-carboxamide]
- Cisplatin Sensitization Assay: ++ (Compounds with a Cisplatin sensitization value >0.02 μM but <0.2 μM are marked with “++.”)

SMILES: CN1CCOC[C@@H]1c1ccc(-c2ccncc2NC(=O)c2c(N)nn3cc(F)cnc23)cc1 [I-C-66, (S)-2-amino-6-fluoro-N-(4-(4-(4-methylmorpholin-3-yl)phenyl)pyridin-3-yl)pyrazolo[1,5-a]pyrimidine-3-carboxamide]
- Cisplatin Sensitization Assay: +++ (Compounds with a Cisplatin sensitization value of <0.02 μM are marked with “+++.”)

SMILES: Cc1cncnc1-c1ccncc1NC(=O)c1c(N)nn2cc(F)cnc12 [I-C-67, 2-amino-6-fluoro-N-(4-(5-methylpyrimidin-4-yl)pyridin-3-yl)pyrazolo[1,5-a]pyrimidine-3-carboxamide]
- Cisplatin Sensitization Assay: ++ (Compounds with a Cisplatin sensitization value >0.02 μM but <0.2 μM are marked with “++.”)

SMILES: Cn1ccc(-c2ccncc2NC(=O)c2c(N)nn3cc(F)cnc23)n1 [I-C-68, 2-amino-6-fluoro-N-(4-(1-methyl-1H-pyrazol-3-yl)pyridin-3-yl)pyrazolo[1,5-a]pyrimidine-3-carboxamide]
- Cisplatin Sensitization Assay: + (Compounds with a Cisplatin sensitization value >0.2 μM but <5 μM are marked with “+.”)

SMILES: CC(=O)N1CCC(c2ccncc2NC(=O)c2c(N)nn3cc(F)cnc23)CC1 [I-C-69, N-(4-(1-acetylpiperidin-4-yl)pyridin-3-yl)-2-amino-6-fluoropyrazolo[1,5-a]pyrimidine-3-carboxamide]
- Cisplatin Sensitization Assay: +++ (Compounds with a Cisplatin sensitization value of <0.02 μM are marked with “+++.”)

SMILES: Nc1nn2cc(F)cnc2c1C(=O)Nc1cnccc1C1CCN(C(=O)C2CC2)CC1 [I-C-70, 2-amino-N-(4-(1-(cyclopropanecarbonyl)piperidin-4-yl)pyridin-3-yl)-6-fluoropyrazolo[1,5-a]pyrimidine-3-carboxamide]
- Cisplatin Sensitization Assay: +++ (Compounds with a Cisplatin sensitization value of <0.02 μM are marked with “+++.”)

SMILES: N#CC1(C(=O)N2CCC(c3ccncc3NC(=O)c3c(N)nn4cc(F)cnc34)CC2)CC1 [I-C-71, 2-amino-N-(4-(1-(1-cyanocyclopropanecarbonyl)piperidin-4-yl)pyridin-3-yl)-6-fluoropyrazolo[1,5-a]pyrimidine-3-carboxamide]
- Cisplatin Sensitization Assay: +++ (Compounds with a Cisplatin sensitization value of <0.02 μM are marked with “+++.”)

SMILES: Cn1nncc1-c1ccncc1NC(=O)c1c(N)nn2cc(F)cnc12 [I-C-72, 2-amino-6-fluoro-N-(4-(1-methyl-1H-1,2,3-triazol-5-yl)pyridin-3-yl)pyrazolo[1,5-a]pyrimidine-3-carboxamide]
- Cisplatin Sensitization Assay: +++ (Compounds with a Cisplatin sensitization value of <0.02 μM are marked with “+++.”)

SMILES: CN1CCC(c2ccncc2NC(=O)c2c(N)nn3cc(F)cnc23)CC1=O (stereo not drawn) [I-C-73, 2-amino-6-fluoro-N-(4-(1-methyl-2-oxopiperidin-4-yl)pyridin-3-yl)pyrazolo[1,5-a]pyrimidine-3-carboxamide]
- Cisplatin Sensitization Assay: ++ (Compounds with a Cisplatin sensitization value >0.02 μM but <0.2 μM are marked with “++.”)

SMILES: Cn1ccc2c(NC(=O)c3c(N)nn4cc(F)cnc34)cncc21 [I-C-74, 2-amino-6-fluoro-N-(1-methyl-1H-pyrrolo[2,3-c]pyridin-4-yl)pyrazolo[1,5-a]pyrimidine-3-carboxamide]
- Cisplatin Sensitization Assay: + (Compounds with a Cisplatin sensitization value >0.2 μM but <5 μM are marked with “+.”)

SMILES: Nc1nn2cc(F)cnc2c1C(=O)Nc1cnccc1C1CCOC1 (stereo not drawn) [I-C-75, 2-amino-6-fluoro-N-(4-(tetrahydrofuran-3-yl)pyridin-3-yl)pyrazolo[1,5-a]pyrimidine-3-carboxamide]
- Cisplatin Sensitization Assay: ++ (Compounds with a Cisplatin sensitization value >0.02 μM but <0.2 μM are marked with “++.”)
